Test results reported in ChEMBL document CHEMBL1158312, “Cytotoxic triterpenes from a marine sponge, Stelletta sp” (J Nat Prod, 1996).
Calls of active or inactive are those of the source.

Assays:
[1] = biological target: T1, Retinoic acid receptor RXR-alpha (Homo sapiens) (UniProt P19793); assay: Binding affinity to human RXRalpha assessed as induction of receptor conformational change at 1 uM
T1 sequence (whole entry): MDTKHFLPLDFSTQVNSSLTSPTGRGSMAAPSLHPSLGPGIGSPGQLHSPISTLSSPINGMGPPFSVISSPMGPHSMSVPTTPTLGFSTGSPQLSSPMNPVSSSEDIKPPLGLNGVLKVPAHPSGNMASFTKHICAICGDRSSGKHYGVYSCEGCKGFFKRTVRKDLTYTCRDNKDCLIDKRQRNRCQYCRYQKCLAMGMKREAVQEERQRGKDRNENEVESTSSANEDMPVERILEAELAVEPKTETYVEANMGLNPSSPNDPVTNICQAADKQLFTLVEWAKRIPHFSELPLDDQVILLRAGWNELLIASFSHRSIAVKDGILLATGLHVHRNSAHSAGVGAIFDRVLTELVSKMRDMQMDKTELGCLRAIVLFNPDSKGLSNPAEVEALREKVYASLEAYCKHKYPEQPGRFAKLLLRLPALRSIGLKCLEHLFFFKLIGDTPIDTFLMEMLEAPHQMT

[2] = biological target: T2, Retinoic acid receptor RXR-alpha (Mus musculus) (UniProt P28700); assay: Binding affinity to mouse RXRalpha assessed as induction of receptor conformational change at 1 uM
T2 sequence (whole entry): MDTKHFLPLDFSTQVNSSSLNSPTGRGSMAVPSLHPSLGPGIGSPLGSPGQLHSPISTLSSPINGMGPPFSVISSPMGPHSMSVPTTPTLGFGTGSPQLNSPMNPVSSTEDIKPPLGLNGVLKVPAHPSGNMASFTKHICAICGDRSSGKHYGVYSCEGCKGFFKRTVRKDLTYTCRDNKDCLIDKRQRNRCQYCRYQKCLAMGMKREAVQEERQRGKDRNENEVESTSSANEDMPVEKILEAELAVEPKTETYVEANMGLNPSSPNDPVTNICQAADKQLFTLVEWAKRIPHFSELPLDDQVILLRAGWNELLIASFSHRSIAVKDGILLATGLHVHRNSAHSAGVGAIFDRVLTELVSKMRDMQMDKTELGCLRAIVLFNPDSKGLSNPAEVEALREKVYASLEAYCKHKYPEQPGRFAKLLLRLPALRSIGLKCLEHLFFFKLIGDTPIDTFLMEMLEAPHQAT

[3] = biological target: T2, Retinoic acid receptor RXR-alpha (Mus musculus); assay: Antagonist activity at mouse RXRalpha assessed as inhibition of 9-cis-retinoic acid-induced response by differential proteolytic sensitivity assay; assay type: functional

Measured: Activity

C/C(=C/C=C/C(C)=C/C=C/C(C)=C1\C(=O)C[C@H]2[C@@]3(C)CCC(=O)C(C)(C)[C@@H]3CC[C@]12C)C(=O)O
inactive: [1] | [2] | [3]

CC(/C=C/C=C(\C)c1ccc(C)c(=O)o1)=C1/C(=O)C[C@H]2[C@@]3(C)CCC(=O)C(C)(C)[C@@H]3CC[C@]12C
inactive: [1] | [2] | [3]
